The text below walks through data of US20150125550A1, “APPLICATION OF 2,9-DI-SEC-BUTYL-1,10-PHENANTHROLINE AS A GLIOBLASTOMA TUMOR CHEMOTHERAPY” (priority 2013, published 2015).

One data set deals with A549 lung cancer cells. As to the kind of experiment: SRB colorimetric assay, A549 lung cancer cells, 72 hours. The class given is cell-based, human. As to conditions: for IC50: A549, 72 hours, average ± SD of three curves; for IC50 times lower than cisplatin: A549. As for the experimental part: A549 cells were cultured in RPMI media supplemented with 10% Fetal Bovine Serum and 1% nonessential amino acids. Sub-culturing was carried out every 3-4 days and was completed by removing the supernatant media and treating the adherent cells with 1.0 mL of a 0.25% (w/v) Trypsin/0.5 mM EDTA solution. The cells were then treated for approximately 3 minutes in a 37° C. incubator under a 5% CO2 atmosphere. Trypsinization was stopped by the addition of 7.0 mL of cell culture media, the suspended cells were collected by centrifugation, and the resulting cell pellet was re-suspended in fresh cell culture media. The cells were then diluted 1:4 by volume and incubated in a 37° C. incubator with 5% CO2. Cells were grown to 80-90% confluency prior to being used in the SRB colorimetric assays.
To test the effects of compounds 1-18 on the growth of A549 lung cancer cells, SRB cytotoxicity assays were done as described by Skehan et al. Cells were maintained in RPMI media as described above, collected, and diluted so that cells could be seeded in 96-well plates at a density of 4,000 cells/well. The 96-well plate was incubated overnight at 37° C. under a 5% CO2 atmosphere. Subsequently, sterifiltered DMSO stock solutions of the drugs were added to the wells in various concentrations (0-25 μM) and the 96-well plate was incubated at 37° C. under a 5% CO2 for an additional 72 hours. The supernatant cell culture medium was then removed and the cells were fixed for 1 hour with 10% cold trichloroacetic acid (100 μL per well). The trichloroacetic acid was discarded and the plates were washed 5 times with de-ionized water and air dried. After being stained with 0.4% SRB ([…]) and incubated at room temperature for 10 minutes, the cells were washed 5 times with 1% acetic acid and air dried. The bound SRB was dissolved in 10 mM unbuffered Tris, pH 10.5 ([…]) for 10 minutes at room temperature, and the absorbance at 492 nm was measured using a microplate reader. The percent cell growth was then calculated based upon the absorbance values relative to control samples not containing any drug. Each drug concentration was done in triplicate to yield a percent growth vs. drug concentration curve, and these growth curves were subsequently repeated two additional times. The growth curves from the three experiments were then plotted in GraphPad Prism and best-fit curves were used to generate the IC50 values for each curve.

Data set [1] concerns GL-26 glioma cells. The data set can be described thus: SRB growth assay, GL-26 glioma cells, 48 hr drug incubation. The class given is cell-based, murine (C57BL/6). The conditions noted are these: Mus musculus, read-out: GL-26 cell growth inhibition. As for the experimental part:
The murine (C57BL/6) glioma cell line, GL-26, which is highly tumorigenic in the C57BL/6 mice. GL-26 cells were cultured in DMEM/F12 supplemented with 10% FCS, 1% penicillin/streptomycin, 1% L-glutamine and 1% non-essential amino acids. Human foreskin fibroblasts (HFFs) were cultured in DMEM/F12 supplemented with 10% FCS and 1% penicillin/streptomycin. Primary murine astrocytes were purified from C57BL/6 neonate brains and cultured in DMEM/F12 supplemented with 10% FCS, 1% non-essential amino acids, 1% Lglutamine, 50 IU/ml penicillin, […] and 10 mM Hepes buffer.
The sulforhodamine B (SRB) cytotoxicity assays were adapted from Skehan et al. (22). Briefly, either HFF, primary astrocytes or GL-26 cells were plated in 96-well plates at a density of 4,000 cells/well in a volume of 100 µL overnight at 37° C. and 5% CO2. DMSO stock solutions of SBP, MSBP or TMZ were used at a concentration range of 0.1-25 μM for 48 hr before the supernatant was discarded and the cells were fixed for 1 hr with 10% cold trichloroacetic acid (100 μL, per well). Cells used in recovery assay received fresh media for 48 hrs following the 48 hr drug incubation. The plate was then washed 5 times with de-ionized water, air dried, and stained with 0.4% SRB for 10 min (50 μL, per well). After washing 5 times in 1% acetic acid and air-drying, bound SRB was dissolved in 10 mM unbuffered Tris base (pH 10.5; 100 μL, per well). Bound SRB was then read by absorbance at 492 nm on a SpectraMax plate reader (Molecular Devices). The percent survival was then calculated based upon the absorbance values relative to control wells (0 μM SBP in 0.1% DMSO).

For data set [2] the following is noted: GSH buffer solution; cited from earlier work.
A short description of data set [3]: Glutathione stability experiments (UV-visible spectra). As to conditions: 5.0×10^−5 M complex, one mole equivalent GSH, phosphate buffer pH 7.4, 15 hours. The class given is physicochemical. As for the experimental part: 5.0×10^−3 M stock solutions of compounds 10-18 were prepared in acetonitrile or DMSO, and subsequently diluted in phosphate buffer (0.10M, pH 7.4) to yield a final gold complex concentration of 5.0×10^−5 M. A stock solution of reduced glutathione in phosphate buffer (0.10M, pH 7.4) was used to add one mole equivalent of GSH to the final gold complex solution, and UV-visible spectra of compounds 10-18 were subsequently collected every hour over a 15 hour period.

Data set [4] concerns GL-26 glioma cells. The data set can be described thus: SRB growth assay, cisplatin/SBP combination. The conditions noted are these: 0.8 μM cisplatin alone, 48 hours. The class given is cell-based, murine (C57BL/6). The method, then: The murine (C57BL/6) glioma cell line, GL-26, which is highly tumorigenic in C57BL/6 mice, were used for these in-vitro experiments. GL-26 cells were cultured in DMEM/F12 supplemented with 10% FCS, 1% penicillin/streptomycin, 1% L-glutamine and 1% non-essential amino acids.
Sulforhodamine B (SRB) cytotoxicity assays were utilized to assess antitumor activity. GL-26 cells were plated in 96 well plates at a density of 4,000 cells/well (in a total volume of 100 µL) and incubated for 24 hours in a humidified atmosphere of 5% CO2 at 37° C. GL-26 cells were then exposed to Cisplatin at 0-25 μM with either 0.1 or 0.4 μM SBP for 48 hours. The supernatant was then discarded and the GL-26 cells were fixed with 10% cold trichloroacetic acid for 1 hour (100 μL/well). The cells were washed 5 times with de-ionized water, air dried, and stained with 0.4% SRB for 10 min (50 μL/well). GL-26 cells were then washed 5 times in 1% acetic acid and allowed to air dry. The bound SRB was dissolved in a 10 mM unbuffered Tris base (pH 10.5; 100 μL per well) and quantified by the absorbance at 492 nm using the SpectraMax plate reader (Molecular Devices). The fraction of cell growth was determined based upon the absorbance values in comparison to the control wells (0 μM SBP in 0.5% DMSO). All cell growth assays were done in a minimum of triplicates.

With `CCCCc1ccc2ccc3ccc(CCCC)nc3c2n1` [Compound 2, 2,9-di-n-butyl-1,10-phenanthroline], in the data set with A549 lung cancer cells (Homo sapiens), the IC50 came to 1080 ± 280 nM. `Cc1ccc2ccc3ccc(C)nc3c2n1` [Compound 3, 2,9-di-methyl-1,10-phenanthroline] had an IC50 in the data set with A549 lung cancer cells (Homo sapiens) of 1350 ± 90 nM. Still for that read-out and setting: for `CCC(C)c1ccc2ccc3c(C)cc(C(C)CC)nc3c2n1` (centres unmarked) [Compound 4, 2,9-di-sec-butyl-4-methyl-1,10-phenanthroline] the value was 700 ± 110 nM. In the case of `CCC(C)c1ccc2ccc3cccnc3c2n1` (centres unmarked) [Compound 5, 2-sec-butyl-1,10-phenanthroline], the inhibition at 6 µM in the data set on GL-26 glioma cells [1] (GL26, 6 μM) was 0.6 ± 1.2%. Also, the inhibition at 25 µM in the data set on GL-26 glioma cells [1] (GL26, 25 μM) came out at 24.7 ± 5%. The same compound displayed an IC50 with A549 lung cancer cells (Homo sapiens) of 620 ± 160 nM. `CCCCc1ccc2ccc3cccnc3c2n1` [Compound 6, 2-mono-n-butyl-phenanthroline] gave an IC50 in the data set on A549 lung cancer cells (Homo sapiens) of 2920 ± 470 nM. Same read-out and setting: in the case of `c1ccc(-c2ccc3ccc4ccc(-c5ccccc5)nc4c3n2)cc1` [Compound 7, 2,9-di-phenyl-1,10-phenanthroline] it was 1870 ± 210 nM. With `Cc1cc(-c2ccccc2)nc2c1ccc1ccc(-c3ccccc3)nc12` [Compound 8, 2,9-di-phenyl-4-methtyl-1,10-phenanthroline], the IC50 in the data set on A549 lung cancer cells came to 1350 ± 110 nM. As to `CCC(C)c1ccc2ccc3ccc(C(C)CC)nc3c2n1.[Cl][Au]([Cl])[Cl]` (centres unmarked) [Compound 10, (2,9-di-sec-butyl-1,10-phenanthroline)AuCl3], inhibition in the data set on A549 lung cancer cells was half-maximal at 580 ± 150 nM (IC50). The “stability in the presence of GSH (previous studies)” value in data set [2] was “quite stable in the presence of a GSH buffer solution”.

For the compound `CCCCc1ccc2ccc3ccc(CCCC)nc3c2n1.[Cl][Au]([Cl])[Cl]` [Compound 11, (2,9-di-n-butyl-1,10-phenanthroline)AuCl3], in the data set with A549 lung cancer cells, the “IC50 times lower than cisplatin” value is “approximately 12 times” and the IC50 is 340 ± 60 nM. Moreover, the “times more active than the free ligand” value with A549 lung cancer cells (A549 IC50 ratio) is “approximately 3 times”. With `Cc1ccc2ccc3ccc(C)nc3c2n1.[Cl][Au]([Cl])[Cl]` [Compound 12, (2,9-di-methyl-1,10-phenanthroline)AuCl3], the IC50 in the data set with A549 lung cancer cells amounted to 1470 ± 210 nM.

Turning to `CCC(C)c1ccc2ccc3c(C)cc(C(C)CC)nc3c2n1.[Cl][Au]([Cl])[Cl]` (centres unmarked) [Compound 13, (2,9-di-sec-butyl-4-methyl-1,10-phenanthroline)AuCl3], half-maximal inhibition with A549 lung cancer cells (IC50) required 4020 ± 320 nM. Further, in the data set with A549 lung cancer cells (A549 IC50 ratio), the “times less active than the corresponding free ligand” value is given as “approximately 6 times”.

`CCC(C)c1ccc2ccc3cccnc3c2n1.[Cl][Au]([Cl])[Cl]` (centres unmarked) [Compound 14, (2-sec-butyl-1,10-phenanthroline)AuCl3] had a half-maximal inhibitory concentration (IC50) in the data set on A549 lung cancer cells of 770 ± 70 nM. Consider `CCCCc1ccc2ccc3cccnc3c2n1.[Cl][Au]([Cl])[Cl]` [Compound 15, (2-mono-n-butyl-phenanthroline)AuCl3], for which the “redox stability in the presence of GSH” value in data set [3] is recorded as “no reduction to gold(I) or gold(0) occurred”. Besides, in the data set on A549 lung cancer cells, the “IC50 times lower than cisplatin” value is “approximately 12 times” and the IC50 stood at 370 ± 90 nM. The “times more active than the free ligand” value with A549 lung cancer cells (A549 IC50 ratio) is on record as roughly 8 times.

`[Cl][Au]([Cl])[Cl].c1ccc(-c2ccc3ccc4ccc(-c5ccccc5)nc4c3n2)cc1` [Compound 16, (2,9-di-phenyl-1,10-phenanthroline)AuCl3] yielded an IC50 in the data set on A549 lung cancer cells of 1650 ± 130 nM.

In the data set on A549 lung cancer cells, `Cc1cc(-c2ccccc2)nc2c1ccc1ccc(-c3ccccc3)nc12.[Cl][Au]([Cl])[Cl]` [Compound 17, (2,9-di-phenyl-4-methtyl-1,10-phenanthroline)AuCl3] displayed an IC50 of 1370 ± 110 nM. In the case of `Cc1c(C)c2cccnc2c2ncccc12.[Cl][Au+][Cl]` [[(^5,6-di-methylphen)AuCl2]^+, reference compound], the “stability in the presence of GSH (previous studies)” value in data set [2] is given as “underwent immediate reduction to gold(0) in the presence of GSH”.

For `N.N.[Cl][Pt][Cl]` [cisplatin, [Pt(NH3)2Cl2], reference compound], the “cell growth compared to untreated tumor cells” value in the data set on GL-26 glioma cells [4] is reported as “approximately 78%”. Besides, it took 4670 ± 210 nM to reach half-maximal inhibition in the data set with A549 lung cancer cells (IC50). With “(2-mono-sec-butyl-2,2′-bipyridine)AuCl3 [Compound 18]”, the “Cell Growth @ 12 μM” value with A549 lung cancer cells (A549, 12 μM) was 100% Cell Growth @ 12 μM. Moreover, in the data set with A549 lung cancer cells (concentrations used for compounds 1-8 and 10-17), the “reduction of A549 tumor cell growth” value is “did not reduce tumor cell growth at any of the concentrations”.
